Article PMC10945501, “Development and In Vivo Evaluation of Small-Molecule Ligands for Positron Emission Tomography of Immune Checkpoint Modulation Targeting Programmed Cell Death 1 Ligand 1” (Journal of Medicinal Chemistry, 2024)
Where “and” joins values, the source holds several entries; their conditions need not be identical. Equal values may be shown once. Read-outs that look alike come from different tables or passages of the source. Values belong to the molecule of their own block, whether it stands above or below them.

What was measured:
[1] = tested on: PD-L1^+ / PD-L1^– H358 tumors (lung adenocarcinoma); design: method as in PMID 37450644; conditions: ex vivo autoradiography; cited from earlier work
[2] = tested on: PD-L1^± ES2 tumors (ovarian carcinoma); design: method as in PMID 37450644; conditions: ex vivo autoradiography; cited from earlier work
[3] = tested on: PD-L1-negative (CHO) cells; experiment: Competitive radioligand binding assay with [^89Zr]Zr-atezolizumab, PD-L1-negative cells; design: species or system Chinese hamster
Protocol: When 5a and 5c were administered at their highest noncytotoxic concentrations, a 50% blockade of antibody binding was observed (p = 0.034, p = 0.025, respectively).
Nonspecific binding of MultiScreen plates (Merck KGaA, Darmstadt, Germany) was blocked with additive-free Ham’s F-12 medium for 30 min, followed by the addition of 2 × 10^5 CHO-K1 (ATCC, Manassas, USA) or CHO-hPD-L1 cells in 150 μL of additive-free Ham’s F-12 medium per well. […] Supernatant was removed after 60 min of incubation using the MultiScreenHTS vacuum filtration system (Merck KGaA, Darmstadt, Germany) and cells were washed twice with DPBS. After drying, filters were punched and measured in a Wizard^2 γ counter (PerkinElmer, Waltham, USA).

human PD-L1 = target: T1, human PD-L1 (Homo sapiens, UniProt Q9NZQ7); experiment: HTRF PD-1/PD-L1 binding assay (cell-free); conditions: for IC50: cell-free competitive PD-1/PD-L1 HTRF, mean ± SD, read-out: IC50 (hPD-L1 binding affinity, HTRF); for fold decrease in affinity by methylation at R3*: IC50 ratio, pairs 4c vs 5a, 4c vs 5b, 4e vs 5c, 4e vs 5d
T1 construct: purchased Cisbio Bioassays SAS, Codolet, France 64PD1PEG
T1 sequence (Q9NZQ7 19-238 limits assumed): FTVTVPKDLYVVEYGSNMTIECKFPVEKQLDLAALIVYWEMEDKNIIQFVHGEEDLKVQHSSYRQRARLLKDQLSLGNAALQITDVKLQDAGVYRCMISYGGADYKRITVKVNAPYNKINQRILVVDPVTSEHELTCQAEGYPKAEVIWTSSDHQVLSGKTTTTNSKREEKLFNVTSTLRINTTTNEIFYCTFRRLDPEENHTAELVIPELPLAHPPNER

[4] = tested on: CHO and CHO-hPD-L1 xenografts; experiment: In vivo dynamic μPET/CT imaging; conditions: NSG mice, i.v.
Protocol: Body weight and tumor development were monitored every second day by caliper measurement. […] The animals were subjected to μPET imaging, when tumors reached a volume of at least 200 mm^3. […] There were no losses. […] The mice were placed in the μPET/CT scanner (Inveon, Siemens Medical Solution, Knoxville, USA), covering the total body, and dynamic imaging was performed for up to 60 min to follow tracer distribution. Images were recorded with frames of 4 × 2 […], and 1 × 500 s. During the whole imaging procedure, vital parameters (respiration, body temperature) were continuously monitored using a dedicated monitoring unit (bioVet; m2m imaging, Cleveland, USA) to ensure the depth of anesthesia and well-being of the animals. […] Volumes of interest (VOIs) were created semiautomatically based on fused μPET and μCT images using PMOD software (Version 3.807; Bruker, Mannheim, Germany). The tracer uptake in the VOIs is normalized to injected dose and volume and expressed as percentage injected dose per cubic centimeter (% ID/cc).

[5] = Plasma stability, human plasma; assay type: in vitro ADME; conditions: 60 min, 37 °C
Protocol: (§1) Plasma stability was tested against pooled mouse plasma (Merck KGaA, Darmstadt, Germany) and pooled human plasma (Merck KGaA, Darmstadt, Germany). 25 μL of formulated radiotracer were incubated with 1250 μL of plasma at 37 °C. The amount of intact tracer (%) was determined after 0, 15, 30, and 60 min. 100 μL aliquots were quenched with the same amount of MeCN, centrifuged for 4 min at 4 °C with 21,380g, and analyzed by HPLC setup 1.

[6] = Plasma stability, mouse plasma; assay type: in vitro ADME; conditions: 60 min, 37 °C
Protocol: as §1

[7] = Plasma protein binding (centrifugal filters); assay type: in vitro ADME; conditions: 10 kDa centrifugal filters
Protocol: Plasma protein binding was assessed using 10 kDa centrifugal filters (Merck KGaA, Darmstadt, Germany). After centrifugation for 30 min at 21,380g, filtrates, and filters were measured separately in a γ counter. In addition, water was used instead of plasma to assess the nonspecific binding to filters.

[8] = tested on: CHO and CHO-hPD-L1 xenografts; experiment: Ex vivo biodistribution; assay type: in vivo, NSG mice
Protocol: Ex vivo biodistribution was assessed 30, 40, and 70 min after tracer application in NSG mice. Radioactivity was determined using a Wizard[2] γ counter. Samples were measured for 30 s, CPM-corrected for background counts, and half-life corrected to time of tracer injection. Organs were wet-weighted, and the percentage of injected dose per gram of organ was calculated (% ID/g).

[9] = Metabolic stability in human liver microsomes; assay type: in vitro ADME; conditions: 60 min, 37 °C
Protocol: Metabolic stability was tested using pooled, mixed gender, 20 donor human liver microsomes (HLM) (Corning, Corning, USA, Cat. #452161) according to the supplied protocol. In short, 15 μL of HLM (20 mg/mL), 15 μL of nicotinamide adenine dinucleotide phosphate (NADPH) regenerating system solution A (Corning, Corning, USA), 3 μL of solution B (Corning, Corning, USA), and 257 μL of a 1:10 dilution of 10× phosphate-buffered saline (PBS) concentrate (MORPHISTO, Offenbach am Main, Germany) were preincubated at 37 °C for 10 min.
Aliquots were drawn 0, 15, 30, and 60 min after the addition of 5 μL radiotracer, subsequently quenched with the same amount of MeCN, centrifuged for 4 min at 21,380g, and analyzed by HPLC setup 1 for the amount of intact tracer (%).

[10] = Lipophilicity by HPLC method (μHPLC logD); conditions: for chromatographic logD: pH 7.4, μHPLC logD
PD-L1 (CHO-hPD-L1 cells) = target: T2, PD-L1 (CHO-hPD-L1 cells) (Homo sapiens, UniProt Q9NZQ7); experiment: Competitive radioligand binding assay with [^89Zr]Zr-atezolizumab, PD-L1-positive cells; conditions: for % applied activity ([^89Zr]Zr-atezolizumab bound) / blockade of antibody binding: CHO-hPD-L1 cells; for % applied activity ([^89Zr]Zr-atezolizumab bound): preincubation with 5,000 nM blocker; for blockade of antibody binding: highest noncytotoxic concentration; for Ki: range contingent on published KD values of atezolizumab, read-out: Ki (Cheng–Prusoff)
T2 construct: host or cells: CHO (Chinese hamster ovary) cells, kept under G418 selection
T2 sequence (Q9NZQ7 19-290): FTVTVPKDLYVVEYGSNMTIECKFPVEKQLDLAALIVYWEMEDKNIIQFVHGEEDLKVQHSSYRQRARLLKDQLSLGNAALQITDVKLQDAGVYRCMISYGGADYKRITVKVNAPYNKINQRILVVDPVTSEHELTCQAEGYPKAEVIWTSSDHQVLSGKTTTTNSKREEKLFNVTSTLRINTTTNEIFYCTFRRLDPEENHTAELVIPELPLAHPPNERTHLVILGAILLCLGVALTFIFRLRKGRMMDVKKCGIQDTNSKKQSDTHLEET

CHO-hPD-L1 cells = experiment: MTT cell viability assay; assay type: cell-based, Chinese hamster; conditions: Cricetulus griseus, 24 h
PD-L1 [11] = conditions: cited from earlier work
PD-L1 [12] = tested on: PD-L1; design: method as in PMID 37409670; conditions: B16–F10, no control xenograft; cited from earlier work
[13] = preincubation with 5,000 nM blocker
[14] = literature IC50 as stated in the original patent, read-out: Lit. IC50

Molecule: N#Cc1c(-c2ccc([18F])cc2)csc1OCc1ccc(CN)cc1 [2-((4-(aminomethyl)benzyl)oxy)-4-(4-[^18F]fluorophenyl)thiophene-3-carbonitrile]
fold higher uptake in PD-L1^+ compared to PD-L1^– tumors [1]: 1.4 fold
difference in uptake PD-L1^+ vs PD-L1^– tumors [2]: not observed

IC50 (human PD-L1): 4.1 nM
Molecule: atezolizumab: high-affinity anti-PD-L1 antibody used for reference [reference compound]
% applied activity ([^89Zr]Zr-atezolizumab bound) ([3]; preincubation with 200 nM blocker): 0.1 % applied activity

uptake in CHO and CHO-hPD-L1 xenografts (μPET) ([4]; dynamic scan up to 60 min): < 1.2 % ID/cc
intact tracer in human plasma [5]: over 99%
intact tracer in mouse plasma [6]: over 99%
fraction unbound [7]: 0.011
ex vivo uptake marked in Figure 9B ([8]; NSG mice, 30, 40 or 70 min p.i.): < 1.5 % ID/g
intact tracer after human liver microsomes [9]: 49.3%
Molecule: Cc1c(COc2cc(OCc3ccnc(C#N)c3)c(CN([11CH3])CCO)cc2Cl)cccc1-c1ccc2c(c1)OCCO2 [[^11C]5c]
organ uptake (μPET) [4]: high uptake in the liver, intestine, gallbladder, and kidneys
organ uptake (ex vivo biodistribution) ([8]; NSG mice): substantial uptake in the liver, lung, and kidneys

chromatographic logD [10]: 3.36 ± 0.04
% applied activity ([^89Zr]Zr-atezolizumab bound) (PD-L1 (CHO-hPD-L1 cells)): 4.2 % applied activity
Ki (PD-L1 (CHO-hPD-L1 cells)): 700 to 4500 nM
fold decrease in affinity by methylation at R3* (human PD-L1): 1.02 fold
IC50 (human PD-L1): 6.2 ± 0.6 nM
Molecule: Cc1c(COc2cc(OCc3ccnc(C#N)c3)c(CN(C)[C@H](CO)C(=O)O)cc2Cl)cccc1-c1ccc2c(c1)OCCO2 [Compound 5a, N-(5-Chloro-2-((2-cyanopyridin-4-yl)methoxy)-4-((3-(2,3-dihydrobenzo[b][1,4]dioxin-6-yl)-2-methylbenzyl)oxy)benzyl)-N-methyl-D-serine]
blockade of antibody binding (PD-L1 (CHO-hPD-L1 cells)): 50%
% applied activity ([^89Zr]Zr-atezolizumab bound) [3, 13]: 0.2 % applied activity
EC50 (CHO-hPD-L1 cells; read-out: Relative EC50 (cell viability, MTT)): 20600 nM

Molecule: CC(=O)NCCNCc1ccc(OCc2cccc(-c3ccccc3)c2C)cc1OCc1ccc(C(=O)O)cc1 [BMS-1043]
IC50 (PD-L1 [11]; [14]): 239 nM

Molecule: COc1cc(OCc2cccc(-c3ccccc3)c2C)cc(OC)c1CN1CCCC[C@H]1C(=O)O [PD-1/PD-L1 Inhibitor 1, reference compound]
EC50 (CHO-hPD-L1 cells; read-out: EC50 (cell viability, MTT)): 52300 nM

Molecule: Cc1c(COc2cc(OCc3cccc(OS(=O)(=O)[18F])c3)c(CNC(CO)(CO)CO)cc2Cl)cccc1-c1ccc2c(c1)OCCO2 [[^18F]LGSu-1]
PD-L1^+ tumor uptake (PD-L1 [12]): 3.3 % ID/mL

Molecule: Cc1c(COc2cc(OCc3cncc(C#N)c3)c(CN[C@H](CC(N)=O)C(=O)O)cc2Cl)cccc1-c1ccc2c(c1)OCCO2 [BMS-3024]
IC50 (PD-L1 [11]; [14]): 5.54 nM

Molecule: Cc1c(COc2cc(OCc3cncc(C#N)c3)c(CNC[C@@H](O)CC(=O)O)cc2Cl)cccc1-c1ccc2c(c1)OCCO2 [BMS-1250]
IC50 (PD-L1 [11]; [14]): 1.19 nM

Molecule: CC(=O)NCCNCc1ccc(Oc2cccc(-c3ccccc3)c2C)cc1OCc1cccc(NC(=O)OC(C)(C)C)c1 [BMS-1119]
IC50 (PD-L1 [11]; [14]): 14200 nM

Molecule: N#Cc1cc(COc2cc(OCc3cccc(-c4ccc5c(c4)OCCO5)c3Br)c(Cl)cc2CN2CCCC[C@H]2C(=O)O)ccn1 [Example 15]
IC50 (PD-L1 [11]; read-out: IC50 (Figure 1, previously reported ligands)): 0.001 to 0.01 nM

Molecule: CC(=O)NCCNCc1ccc(OCc2cccc(-c3ccccc3)c2C)cc1OCc1ccc(F)c(C)c1 [BMS-1108]
IC50 (PD-L1 [11]; [14]): 624 nM

μHPLC logD ([10]; pH 7.4): 4.9 ± 0.3
chromatographic logD [10]: 4.93 ± 0.27
% applied activity ([^89Zr]Zr-atezolizumab bound) (PD-L1 (CHO-hPD-L1 cells)): 4.7 % applied activity
Ki (PD-L1 (CHO-hPD-L1 cells)): 700 to 4500 nM
fold decrease in affinity by methylation at R3* (human PD-L1): 1.32 fold
IC50 (human PD-L1): 10 nM and 10.2 nM
Molecule: Cc1c(COc2cc(OCc3ccnc(C#N)c3)c(CN(C)CCO)cc2Cl)cccc1-c1ccc2c(c1)OCCO2 [Compound 5c, 4-((4-Chloro-5-((3-(2,3-dihydrobenzo[b][1,4]dioxin-6-yl)-2-methylbenzyl)oxy)-2-(((2-hydroxyethyl)(methyl)amino)methyl)phenoxy)methyl)picolinonitrile]
blockade of antibody binding (PD-L1 (CHO-hPD-L1 cells)): 50%
% applied activity ([^89Zr]Zr-atezolizumab bound) [3, 13]: 0.1 % applied activity
EC50 (CHO-hPD-L1 cells; CHO-hPD-L1 cells, read-out: EC50 (cell viability, MTT)): 11600 nM

Molecule: Cc1cc(CN2CCCC[C@@H]2C(=O)O)c(OCc2cncc(C#N)c2)cc1OCc1cccc(-c2ccc3c(c2)OCCO3)c1C [BMS-1288]
IC50 (PD-L1 [11]; [14]): 1.88 nM

Molecule: Cc1c(COc2ccc(CN[C@](C)(CO)C(=O)O)c(OCc3cccc(C#N)c3)c2Cl)cccc1-c1ccc2c(c1)OCCO2 [BMS-1239]
IC50 (PD-L1 [11]; [14]): 149 nM

Molecule: Cc1c(COc2cc(OCc3cncc(C(=O)O)c3)c(CN[C@@H](CCCN)C(=O)O)cc2Cl)cccc1-c1ccc2c(c1)OCCO2 [BMS-2002]
IC50 (PD-L1 [11]; [14]): 10 nM

Molecule: CC(=O)NCCNCc1ccc(OCc2cccc(-c3ccccc3)c2C)cc1OCc1ccccc1[N+](=O)[O-] [BMS-1057]
IC50 (PD-L1 [11]; [14]): 986 nM
